Measurements published in patent publication US20240299393A1, “SMALL MOLECULE DISRUPTORS OF PROTEIN INTERACTIONS IN HISTONE DEACETYLASE COMPLEXES” (Dana-Farber Cancer Institute, Inc., priority 2021, published 2024).

Legend:
[1] = system: DOI-induced head-twitch response (HTR); test: DOI-induced head-twitch response assay; type: in vivo, mouse
Description: Adult male C57BL/6N mice (10-12 weeks old) purchased from Taconic laboratories (Bar Arbor, ME), and C57BL/6N Hdac2 cKO inhouse bred male mice (described previously in Ibi et al 2017) were used for the experimental groups (vehicle and E6R). For assays including Hdac2 cKO mice, we bred homozygous Hdac2loxPAoxP mice to the CaMKIIα-Cre transgenic line and used the Hdac2loxP/loxP:CaMKIIα-Cre (Hdac2 cKO) mice and control littermates. All animals were housed in groups of 5-6 in 500 cm^2 Plexiglas cages (Allentown, NJ) in the animal care facilities at 12 h light/dark cycle (lights on, 8:00 to 20:00) at 23° C. with food and water ad libitum. Cages contained bedding (Teklad ¼″ Corncob bedding, Envigo) and one Nestlests™ (Ancare, Bellmore, NY, USA). […] For the Hdac2 cKO group (n=5), an intraperitoneal injection (2 mg/kg; 10 μL/g) of the psychedelic drug (±)-2,5-dimethoxy-4-iodoamphetamine (DOI) (Sigma Aldrich) was delivered and HTR recorded and quantified. […] 24 h after the last injection, DOI (2 mg/kg; 10 μL/g) was injected and HTR subsequently recorded and quantified. […] HTR were recorded during both habituation and post-DOI administration for 30 min and quantified in 15 min bins. […] 24 h after the last injection, both groups received 2 mg/kg DOI, and HTR was recorded for each group as described above. […]

[2] = system: PAH1 and PAH3 domains of human SIN3A and SIN3B; test: Ligand-detected NMR, human SIN3A and SIN3B PAH1 and PAH3; type: binding, H. sapiens; conditions: FIG. 28
Description: Ligand-detected NMR experiments: all results were acquired using a 3 mm tube at 25° C. on a Bruker 600 MHz Avance II system equipped with a CPPTCI cryoprobe (Bruker BioSpin Corp.). In all experiments, the concentration of E6R was fixed at 300 μM (from a stock of 25 mM in deuterated DMSO) and the concentration of the protein at 10 μM. The volume of deuterated DMSO was kept constant (1.5%) in all tested samples. Right before the experiments, the compound and protein were diluted in 1×PBS containing 0.1% deuterated dithiothreitol (DTT) to a total volume of 200 μL. Samples were diluted by 5% with D2O for magnetic field lock. Spectra were acquired for ligand only, protein only, and ligand+protein. […] STD experiments [Mayer et al 2001] were acquired with 160 scans, with protein irradiation applied for 3 s at 0 ppm and −20 ppm for the on and off resonance experiments, respectively. On and off resonance spectra were collected and stored separately. One-dimensional CPMG-R2 edited experiments [Hajduk et al 1997] were collected for samples with and without proteins using seven CPMG delays (0, 25, 50, 100, 300, 500, and 800 ms) with four scans per delay. Proton spectra used to measure DLB and chemical shift perturbations in the absence and presence of the proteins were recorded with 16 scans using a recycle delay of 3 s. […]

[3] = target: Sc Sin3 PAH2-Ume6 SID (TAMRA-labeled) interaction (Saccharomyces cerevisiae, UniProt P22579); test: biochemical
Sc Sin3 PAH2-Ume6 SID (TAMRA-labeled) interaction, sequence (P22579 402-473): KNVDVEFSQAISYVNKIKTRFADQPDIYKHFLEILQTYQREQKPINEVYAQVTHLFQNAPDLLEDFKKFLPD
Description: Symbols represent individual data points (A) or means with SEM, and lines fitted curves.
IC50 determination for unlabeled Ume6 SID, E6, E6R and E6S: the concentrations of FITC-Ume6 SID (30 nM), and GST-Sin3 PAH2 (3 μM) were fixed and the compounds were titrated with an HP D300 (Hewlett-Packard, CA) to the assay plate.

[4] = system: cycloheximide (CYH) sensitivity; test: Yeast cycloheximide sensitivity at 37° C.; type: cell-based, S. cerevisiae
Description: For assessment of cycloheximide (CYH) sensitivity at 37° C., yeast cells with the cyh2^R genotype (FIG. 29) were first transformed with an empty pDEST-AD-TRP1-CYH2 plasmid (FIG. 30) before running the different experiments. Selection of the plasmid was maintained by culturing cells in SC-W medium.

SMILES | DOI-induced HTR ([1]; HDAC2 cKO mice, 50 mg/kg chronic, vs untreated HDAC2 cKO) | DOI-induced HTR ([1]; WT mice, 50 mg/kg chronic 10 days, DOI 2 mg/kg) | binding to other PAH domains of human SIN3A and SIN3B by NMR [2] | IC50 [3] [µM] | CYH sensitivity [4]
C[C@@H](NC(=O)c1c(O)n2ccccc2nc1=O)c1ccccc1 [E6R, 4-hydroxy-2-oxo-N—((R)-1-phenylethyl)-3,4-dihydro-2H-pyrido[, 2-a]pyrimidine-3-carboxamide] | no additive effect | significantly reduced | can bind | 63.7 | 
CC(/C=C/C(=O)NO)=C\[C@@H](C)C(=O)c1ccc(N(C)C)cc1 [TSA, trichostatin A] |  |  |  |  | induced
